US20100160425A1, “ANTI-ALLERGIC AGENT AND BEVERAGE/FOOD, PREPARATION FOR EXTERNAL APPLICATION OR COSMETIC COMPRISING THE AGENT” (priority 2006, published 2010)

Tested on: mouse bone marrow-derived cultured mast cells (BMMC)
Experiment: Inhibition of histamine release from IgE-sensitized, DNP-HSA-stimulated mouse mast cells
Assay type: cell-based
Settings: for Ratio of Histamine Release Inhibiting Effect %: sample at 10 μg/ml, relative to distilled water control
Protocol: In order to determine the anti-allergic activity (type I allergy), inhibitory activity on the release of histamine from mouse mast cells was used as an indicator. The histamine release inhibitory effect was investigated by using mouse bone marrow-derived cultured mast cells (BMMC). The cells were cultured in a RPMI1640 medium supplemented with 10% heat inactivated FBS (fetal bovine serum), 3 ng/ml of interleukin-3 (IL-3), 5 mM […], and 50 μM 2-mercaptoethanol. The cells (1×10^7 cells/ml) were sensitized anti-DNP mouse IgE antibody overnight, then, on the following day, suspended in a Tyrode solution and incubated with the test samples for 10 minutes, degranulation was induced by adding DNP-HSA (antigen) (20 minutes), and the amount of histamine in the supernatant fluid was determined using liquid chromatography. An LC-10A (manufactured by Shimadzu Corporation) was used as the measuring instrument, and […] was used as the column. Isocratic analysis was conducted under the following conditions: flow rate of 0.5 ml/min; injection amount of 20 μl; temperature of the column oven of 37° C.; detector RF ([…], em. 430 nm). The anti-allergic activity was determined to be high when the relative value to distilled water, which was a control, was lower.

Row | Compound | Ratio of Histamine Release Inhibiting Effect % | anti-allergic activity (among the compounds of general formula (1), summary statement) | histamine release inhibiting effect relative to that of EGCG3″Me (beverages containing 2 μg/ml and 10 μg/ml, FIG. 2) | histamine release inhibiting effect when added to Yabukita hot-water extract (final additive concentration 0.1 to 50 μg/ml in Yabukita hot-water extract, FIG. 4)
1 | epigallocatechin-3-O-(3-O-methyl)gallate [EGCG3″Me, reference compound] | 29.6% |  |  | 
2 | epigallocatechin-3-O-gallate [EGCG, reference compound] | 7.63% |  |  | 
3 | COc1cc(C(=O)O[C@@H]2Cc3c(O)cc(O)cc3O[C@@H]2c2ccc(O)c(O)c2)cc(O)c1O [ECG3″Me, epictechin-3-O-(3-O-methyl)gallate] | 46.79% | especially strong anti-allergic activity | approximately 1.5 times | can increase the anti-allergic activity more than EGCG3″Me
